This passage reports MIC, IC50 and viability results from ChEMBL document CHEMBL4152194, “Synthesis, molecular modeling studies and evaluation of antifungal activity of a novel series of thiazole derivatives” (Eur J Med Chem, 2018).

One data set relates to Pichia kudriavzevii. The experiment in a line: Antifungal activity against Candida krusei ATCC 20298 after 48 hrs by microbroth dilution assay. The data set is classed as functional. The note with it: ATCC 20298, 48 h.
In another data set the test system is Cryptococcus neoformans. The experiment in a line: Antifungal activity against Cryptococcus neoformans ATCC 24067 after 72 hrs by microbroth dilution assay. The data set is classed as functional. The following applies: ATCC 24067, 72 h.
The test system of data set [1] is Cryptococcus bacillisporus. The data set can be described thus: Antifungal activity against Cryptococcus gattii ATCC 32608 after 72 hrs by microbroth dilution assay. The data set is classed as functional. The note with it: ATCC 32608, 72 h. In general terms: In broth dilution the organism is exposed to a series of concentrations in liquid medium.
The next data set relates to Candida tropicalis. The experiment in a line: Antifungal activity against Candida tropicalis ATCC 750 after 48 hrs by microbroth dilution assay. The following applies: ATCC 750, 48 h. The data set is classed as functional.
Data set [2] deals with Paracoccidioides brasiliensis. The data set can be described thus: Antifungal activity against Paracoccidioides brasiliensis Pb18 after 7 days by microbroth dilution assay. The data set is classed as functional. The following applies: 168 h.
The next data set concerns Candida parapsilosis. The data set can be described thus: Antifungal activity against Candida parapsilosis ATCC 22019 after 48 hrs by microbroth dilution assay. The note with it: Lodderomyces parapsilosis, ATCC 22019, 48 h. The data set is classed as functional.
Another data set has as its system Candida albicans. The experiment in a line: Antifungal activity against Candida albicans ATCC 18804 after 48 hrs by microbroth dilution assay. The data set is classed as functional. The note with it: ATCC 18804, 48 h.
The next data set relates to HEK293. The experiment in a line: Cytotoxicity against human HEK293 cells after 72 hrs by MTT assay. The data set is classed as cell-based. The following applies: HEK293, 72 h. A general note: Tetrazolium dyes change colour on reduction, which living cells bring about.
Data set [3] is described as follows: Cytotoxicity against human HEK293 cells assessed as cell viability at 250 uM after 72 hrs by MTT assay relative to control. The data set is classed as cell-based. The note with it: read-out: Activity.

Converted amounts (≈) assume the structure as drawn. Some results are limits rather than exact numbers.

On to `COc1cc(/C=C/C(C)=N/Nc2nc(-c3ccccc3)cs2)ccc1O`, for which the minimum inhibitory concentration (MIC) (in the data set with Pichia kudriavzevii; in the data set with Cryptococcus neoformans; in [1]; with Candida tropicalis; in data set [2]; with Candida parapsilosis) was 250 µM (≈ 91.4 µg/mL) in each case. Also, the minimal inhibitory concentration (MIC) against Candida albicans was 250 µM (≈ 91.4 µg/mL).

Take `COc1ccc(-c2csc(N/N=C(C)/C=C/c3ccc(O)c(OC)c3)n2)cc1`: the minimum inhibitory concentration (MIC) (against Pichia kudriavzevii; in the data set with Cryptococcus neoformans; in data set [1]; in the data set on Candida tropicalis; in the data set on Candida parapsilosis; in the data set on Candida albicans) was 250 µM (≈ 98.9 µg/mL) each time.

As for `CC(C)(C)/C=N/NC(N)=S`, the MIC (in the data set with Pichia kudriavzevii; with Cryptococcus neoformans; in [1]; against Candida tropicalis; in data set [2]; with Candida parapsilosis) was above 250 µM in each case. In the data set on Candida albicans, this compound showed a minimum inhibitory concentration (MIC) above 250 µM.

As to `COc1cc(/C=C/C(C)=N/NC(N)=S)ccc1O`, the MIC (against Pichia kudriavzevii; with Cryptococcus neoformans; in data set [1]; against Candida tropicalis; in [2]; against Candida parapsilosis) was above 250 µM in each case. Further, the MIC against Candida albicans is above 250 µM.

As for `CCC/C(CC)=N/NC(N)=S`, the MIC (against Pichia kudriavzevii; with Cryptococcus neoformans; in data set [1]; in the data set on Candida tropicalis; in [2]; with Candida parapsilosis) was above 250 µM throughout. This compound also gave an MIC in the data set on Candida albicans above 250 µM.

In the case of `Clc1ccc(-c2csc(N/N=C/C=C/c3ccccc3)n2)cc1`, the MIC (against Pichia kudriavzevii; in the data set with Cryptococcus neoformans; in [1]; with Candida tropicalis; in data set [2]; in the data set on Candida parapsilosis) was above 250 µM in each case. The same compound came in with an MIC against Candida albicans above 250 µM.

`COc1cc(/C=C/C(C)=N/Nc2nc(-c3ccc(Cl)cc3)cs2)ccc1O`: the MIC against Pichia kudriavzevii was 250 µM (≈ 100 µg/mL); in the data set on Cryptococcus neoformans, 250 µM (≈ 100 µg/mL); in data set [1], 125 µM (≈ 50 µg/mL); with Candida tropicalis, 250 µM (≈ 100 µg/mL); in data set [2], 62.5 µM (≈ 25 µg/mL); in the data set with Candida parapsilosis, 250 µM (≈ 100 µg/mL). The same compound had an MIC in the data set on Candida albicans of 250 µM (≈ 100 µg/mL).

In the case of `CCC(C)n1ncn(-c2ccc(N3CCN(c4ccc(OCC5COC(Cn6cncn6)(c6ccc(Cl)cc6Cl)O5)cc4)CC3)cc2)c1=O` (configuration not stated) [ITRACONAZOLE], the MIC amounted to 0.18 µM (≈ 0.127 µg/mL) against Pichia kudriavzevii; 0.04 µM (≈ 0.0282 µg/mL) with Cryptococcus neoformans; 0.18 µM (≈ 0.127 µg/mL) in [1]; 0.09 µM (≈ 0.0635 µg/mL) against Candida tropicalis; 0.06 µM (≈ 0.0423 µg/mL) in [2]; 0.18 µM (≈ 0.127 µg/mL) against Candida parapsilosis. Also, inhibition of growth against Candida albicans (MIC) required 0.7 µM (≈ 0.494 µg/mL). The same compound returned an IC50 with HEK293 above 250 µM. Also, the viability at 72 h, 250 µM in data set [3] was 90.8%.

Consider `OC(Cn1cncn1)(Cn1cncn1)c1ccc(F)cc1F` [FLUCONAZOLE], for which the MIC came out at 104 µM (≈ 32 µg/mL) with Pichia kudriavzevii; 6.2 µM (≈ 1.9 µg/mL) against Cryptococcus neoformans; 12.7 µM (≈ 3.89 µg/mL) in [1]; 6.5 µM (≈ 1.99 µg/mL) against Candida tropicalis; 3.2 µM (≈ 0.98 µg/mL) in the data set with Candida parapsilosis; 1.6 µM (≈ 0.49 µg/mL) against Candida albicans. In the data set with HEK293, the IC50 was above 250 µM. Also, in [3], the viability at 72 h, 250 µM is 99.2%.

Regarding `C/C(=N\Nc1nc(-c2ccc(Cl)cc2)cs1)c1ccc(N)cc1`, the MIC (against Pichia kudriavzevii; in the data set on Cryptococcus neoformans; in data set [1]; in the data set with Candida tropicalis; in data set [2]; in the data set on Candida parapsilosis) was above 250 µM each time. The same compound had an MIC in the data set on Candida albicans above 250 µM.

As for `C[C@@H]1[C@H](O)[C@@H](C)/C=C/C=C/C=C/C=C/C=C/C=C/C=C/[C@H](O[C@@H]2O[C@H](C)[C@@H](O)[C@H](N)[C@@H]2O)C[C@@H]2O[C@](O)(C[C@@H](O)C[C@@H](O)[C@H](O)CC[C@@H](O)C[C@@H](O)CC(=O)O[C@H]1C)C[C@H](O)[C@H]2C(=O)O` [AMPHOTERICIN B], the MIC worked out at 0.5 µM (≈ 0.462 µg/mL) against Pichia kudriavzevii; 0.09 µM (≈ 0.0832 µg/mL) against Cryptococcus neoformans; 0.08 µM (≈ 0.0739 µg/mL) in [1]; 1.2 µM (≈ 1.11 µg/mL) against Candida tropicalis; 0.06 µM (≈ 0.0554 µg/mL) in [2]; 0.5 µM (≈ 0.462 µg/mL) in the data set on Candida parapsilosis. The same compound showed an MIC against Candida albicans of 0.3 µM (≈ 0.277 µg/mL). For the same compound, the IC50 in the data set with HEK293 came to 78.6 µM.

With `CC(C)(C)/C=N/Nc1nc(-c2ccccc2)cs1`, the MIC was found to be 5.8 µM (≈ 1.5 µg/mL) with Pichia kudriavzevii; 1.9 µM (≈ 0.493 µg/mL) with Cryptococcus neoformans; 1.9 µM (≈ 0.493 µg/mL) in [1]; 31.2 µM (≈ 8.09 µg/mL) against Candida tropicalis; 125 µM (≈ 32.4 µg/mL) in [2]; 3.9 µM (≈ 1.01 µg/mL) in the data set on Candida parapsilosis. This compound returned an MIC with Candida albicans of 3.9 µM (≈ 1.01 µg/mL).

A word on the MIC: it is the least concentration at which growth counts as inhibited. A low value points to greater potency. Broadly, the IC50 is the concentration that gives 50% inhibition. A lower IC50 goes with greater potency.
